From patent US20080288176A1 (priority 2005, published 2008)

Assays:
male Wistar rats [1] = assay: Urine alanine aminopeptidase to creatinine ratio (proximal tubular kidney damage); type: in vivo, rat; conditions: for AAP/Cr (urine alanine aminopeptidase to creatinine), Mean: oral gavage, urine collected for 6 hours
From the text: Myocardial infarction and ischemic events in high risk patients led one of the most popular COX-2 inhibitors to its demise (Bresalier et al., 2005). Non-selective NSAIDS may also cause similar problems due to their ability to inhibit COX-2. […] Adenosine diphosphate (ADP) generation is an indicator of myocardial infarction which has no connection with the arachidonic acid cascade (Borna et al., 2005). […] Long term NSAID use has been linked to kidney damage and hypertension (Zafirovska et al., 1993). […] This was associated with an increase in the urine the ratio of alanine-amino-peptidase (AAP) and creatinine.
(§1) Table 1 is a summary of the protocol for a study which was conducted in male Wistar rats weighing 275-300 grams. The animals were allowed to acclimatize for at least five days prior to the commencement of the study. The study protocol was approved by the local animal ethics committee.
(§2) All test animals, housed in metabolic cages, had urine collected over wet ice for 6 hours after dosing. Aliquots of the urine from each animal were collected to determine creatinine concentration. The remainder of the urine was centrifuged at 1000 g for 10 minutes. The supernatant was collected and mixed with analytical grade ethylene glycol at a rate of 0.4 mL ethylene glycol per 1 mL urine supernatant. The ethylene glycol/urine mixture was stored at −80° C. until analysis.

[2] = Hydrolysis in rat liver microsomes; type: in vitro ADME; conditions: for liver microsomal activity: model input
From the text: (§3) The physiologically based pharmacokinetic/pharmacodynamic model of the present invention contains a series of compartments that describe the time course of a nonsteroidal anti-inflammatory prodrug, its active metabolites and nitric oxide release in intestine, liver, kidneys, blood/plasma and heart after prodrug administration. The time course of the prodrug, its active metabolites and nitric oxide release can be simulated using a series of in vitro and in silico inputs. The stability of each component in the gastrointestinal lumen is estimated using data collected from artificial gastric and intestinal juice. Intestinal metabolism is estimated using intestinal microsomes and absorption rate is estimated using permeability data collected from a cell monolayer such as Caco-2. Hepatic elimination is estimated using liver microsomes and stability in plasma is calculated using degradation of each component in the media. Plasma protein binding can either be measured using a standardized in vitro method or it can be estimated using an in silico method. The distribution of each component in various parts of the body is estimated using an in silico method. The rate of nitric oxide release is estimated using an in vitro endothelial cell model. The time course of prodrug, its active metabolites and nitric oxide can be simulated in human and animal using this physiologically based pharmacokinetic/pharmacodynamic model provided that the corresponding in vitro and in silico data are used as inputs.
(§4) Representative in vitro tests or in silico estimates include: (a) pKa estimation or measurement; (b) Log P measurement or in silico estimation; (c) Solubility in various physiological fluids; (d) Permeability. Caco-2 and/or NOVOKIN's proprietary animal and human cell lines can be used to obtain this parameter; (e) Metabolic rate in the intestine and liver. Human or animal intestinal microsomes, S9 fraction, and cytosol can be used for this purpose. Human or animal hepatocytes, liver microsomes, S9 fraction, and cytosol can also be used; (f) Hydrolysis in human or animal plasma; (g) Serum or plasma protein binding. It can be measured in vitro or estimated in silico; (h) The rate of NO release; (i) Existing pharmacokinetic and pharmacodynamic data of NSAID or a biocompatible agent; (j) Existing NO release rate of known diazeniumdiolate if applicable; (k) Stability in gastric and intestinal environment; and (l) In silico volume of distribution estimation.
(§5) Whenever in vitro estimate is attainable, the in vitro results will be used, for example, plasma protein binding. Methods reported by Bowalgaha & Miners (2001), Martignoni et al. (2006), Tong et al. (2001) and Thulesen et al. (1999) were used for in vitro and in vivo scale-up for clearance in the intestine, absorption rate constant and hepatic clearance. The simulation begins with no material in all compartments except for the initial bolus in one compartment (typically the stomach compartment). The simulation then estimates the changing distribution of the material with time.

male Wistar rats [3] = assay: Urine N-acetylglucosaminidase to creatinine ratio (distal tubule toxicity); type: in vivo, rat; conditions: oral gavage, urine collected for 6 hours
Method: as §1, §2

Hydrolysis in rat plasma = type: in vitro ADME; conditions: Rat
From the text: as §3, §4

[4] = Stability in gastric environment (gastric decay rate); type: in vitro ADME
From the text: as §3, §4

[5] = Stability in intestinal lumen (decay rate); type: in vitro ADME
From the text: as §3, §4

male Wistar rats [6] = assay: Gastric ulcer index after oral dosing; type: in vivo, rat; conditions: for Ulcer Indices, Mean: oral gavage, naproxen 250 mg/kg or molar equivalent (ROF 250 mg/kg), 6 h after dosing, mean aggregate gastric ulcer length; for Ulcerogenicity (in words): oral, 6 h
Method: as §1
(§6) The animals were fasted overnight prior to test substance administration. The test substance was administered orally by gavage on the morning of the study day. All test animals had blood collected during the test period in both EDTA (ethylenediaminetetraacetic acid) tubes and SST (Serum Separator Tubes) at 1, 3 and 6 hours after dosing. Blood was collected into EDTA tubes only at 1 and 3 hours by tail tip amputation. Volume of blood collected was between 0.5 and 1 mL at each of these collections. The final collection was by puncture of the abdominal vena cava under isoflurane general anesthesia. Final blood collection was targeted as follows: 1st EDTA #1—1.5 mL; 2nd SST—1.5 mL; 3rd EDTA #2—as much as possible.
Each animal from all groups underwent a full necropsy under the supervision of a board certified veterinary pathologist. The stomach of each rat was cut along the greater curvature, contents removed into a polypropylene (Falcon) tube, the mucosa rinsed with saline and any obvious ulcers or erosions were measured along the longest axis. This measurement was recorded for each ulcer or erosion observed in each stomach. The falcon tubes and their contents were frozen at −80° C. and shipped to Novokin on dry ice for analysis.
The aggregate length of all gastric ulcers found in a given animal was calculated. The mean aggregate ulcer length across animals in a group was calculated. This mean value was reported as the ulcer index for that group.
The ulcer index of each modified drug was compared with the ulcer index of its associated parent drug and the controls using analysis of variance and Duncan's multiple range test for pairwise comparisons. Statistical analysis was done using SAS® (SAS Institute Inc., Cary, N.C.).

[7] = Serum nitrate concentration (NO release) after oral dosing; type: in vivo, rat; conditions: male Wistar rats, oral gavage, at 6 hours
Method: as §1, §6
EDTA samples were centrifuged, and the plasma portion was collected and frozen at −80° C. SST samples were incubated at 37° C. for approximately 45 minutes, centrifuged, and the serum was collected and frozen at −80° C. until analysis.

[8] = Hydrolysis in rat intestinal microsomes; type: in vitro ADME; conditions: for intestinal microsomal activity: model input
From the text: as §3, §4, §5

| Structure (SMILES) | Urine AAP/creatinine ratio change (in words) (male Wistar rats [1]) | AAP/Cr (urine alanine aminopeptidase to creatinine), Mean (male Wistar rats [1]) | liver microsomal activity [2] [mL/min/organ] | Urine NAG/Cr values, Mean (male Wistar rats [3]) | plasma decay rate constant (Hydrolysis in rat plasma) [min⁻¹] | gastric decay rate constant ([4]; Human) | gastric decay rate constant ([4]; Rat) | intestinal lumen decay rate constant ([5]; Human) [min⁻¹] | intestinal lumen decay rate constant ([5]; Rat) [min⁻¹] | Ulcer Indices, Mean (male Wistar rats [6]) | Ulcerogenicity (in words) (male Wistar rats [6]) | Serum Nitrate Concentrations, Mean [7] | intestinal microsomal activity [8] [mL/min/organ] | liver molar percent conversion to Naproxen [2] [%] | intestinal molar percent conversion to Naproxen [8] [%] |
| --- | --- | --- | --- | --- | --- | --- | --- | --- | --- | --- | --- | --- | --- | --- | --- |
| COc1ccc2cc([C@H](C)C(=O)OCCCCO[N+](=O)[O-])ccc2c1 [AZD 3582] | did cause an increase | 403.400 | 1029 | 27.439 | 1.0 | 0 /mint | 0 /mint | 0 | 0 | 3.444 | severely ulcerogenic | 460.667 | 0.09 |  |  |
| COc1ccc2cc(C(C)C(=O)OCON=[N+]([O-])N3CCCC3)ccc2c1 (stereo not drawn) [PYRO-NO-NAP, pyrrolidino-diazeniumdiolate-naproxen] |  | 195.569 | 1920 | 21.515 | 1.4 | 0 /mint | 0 /mint | 0.025 | 0.025 | 1.450 | not significantly different from vehicle | 389.000 | 1 | 40 | 10 |
